One assay has as its target T1, mouse ASIC1a (mASIC1a) (Mus musculus, UniProt Q6NXK8).
T1 construct: gene Asic1; synthetic full-length subunit, untagged in pIRES2-EGFP (pmASIC1-IR-EGFP), CHO-K1 cells; homotrimer
T1 sequence (Q6NXK8 1-526): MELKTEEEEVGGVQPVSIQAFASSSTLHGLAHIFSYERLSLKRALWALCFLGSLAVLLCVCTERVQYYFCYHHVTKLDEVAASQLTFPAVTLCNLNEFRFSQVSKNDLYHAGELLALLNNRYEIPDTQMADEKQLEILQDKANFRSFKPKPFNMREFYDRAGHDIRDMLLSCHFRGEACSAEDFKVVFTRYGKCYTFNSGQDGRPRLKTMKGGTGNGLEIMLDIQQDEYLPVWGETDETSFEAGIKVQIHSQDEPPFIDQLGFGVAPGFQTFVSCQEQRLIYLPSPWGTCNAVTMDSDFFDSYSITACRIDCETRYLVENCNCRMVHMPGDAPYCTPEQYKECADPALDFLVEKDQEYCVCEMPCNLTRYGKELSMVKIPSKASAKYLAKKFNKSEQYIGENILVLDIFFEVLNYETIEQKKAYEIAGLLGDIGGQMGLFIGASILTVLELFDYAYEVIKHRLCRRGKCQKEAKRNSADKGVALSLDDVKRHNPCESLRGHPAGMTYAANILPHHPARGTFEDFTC
Briefly: whole-cell patch clamp, CHO-K1, single-dose block of peak inward current. It is filed as cell-based. As to conditions: read-out: % block at 3 mM.

The next assay concerns the target T2, TadNaC2 (Trichoplax adhaerens, UniProt A0A5J6BSS6).
T2 construct: gene ASIC2; full-length cDNA cloned from whole-animal RNA, untagged in pIRES2-EGFP (pTadNaC2-IR-EGFP), CHO-K1 cells; homotrimer modelled; residues F70, T72, D75, E77, H80, E104, E105, H109, W165, F188, L198, R201, K203, S228, P229, W276, L332, S336, D413
T2 sequence (A0A5J6BSS6 1-548): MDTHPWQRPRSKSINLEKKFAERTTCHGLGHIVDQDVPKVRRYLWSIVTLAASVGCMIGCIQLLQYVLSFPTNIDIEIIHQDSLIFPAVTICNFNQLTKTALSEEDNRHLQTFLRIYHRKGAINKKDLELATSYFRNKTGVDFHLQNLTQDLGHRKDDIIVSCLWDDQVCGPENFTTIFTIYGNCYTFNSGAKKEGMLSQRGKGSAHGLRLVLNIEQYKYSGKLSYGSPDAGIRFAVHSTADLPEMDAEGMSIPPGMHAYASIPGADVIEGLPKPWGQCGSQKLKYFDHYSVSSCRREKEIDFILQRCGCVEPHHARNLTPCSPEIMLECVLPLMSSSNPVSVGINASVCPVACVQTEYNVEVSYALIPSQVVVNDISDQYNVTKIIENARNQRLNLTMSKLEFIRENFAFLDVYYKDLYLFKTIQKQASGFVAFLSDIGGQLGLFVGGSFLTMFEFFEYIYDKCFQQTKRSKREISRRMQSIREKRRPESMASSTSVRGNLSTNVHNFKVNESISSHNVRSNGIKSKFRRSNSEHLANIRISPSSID
Description: whole-cell patch clamp, CHO-K1, amiloride dose-response of peak inward current. It is filed as cell-based.

As for `N=C(N)NC(=O)c1nc(Cl)c(N)nc1N` [amiloride], the inhibition at 3000 µM at mouse ASIC1a (mASIC1a) came to 73 ± 4.1%. The same molecule had a half-inhibitory concentration (IC50) against TadNaC2 of 52 ± 29.6 µM.

The values above are taken from PMC10507113, “Function and phylogeny support the independent evolution of an ASIC-like Deg/ENaC channel in the Placozoa” (Communications Biology, 2023).
